Data as given in ChEMBL document CHEMBL3243921, “2-Pyrrolidinylideneureas, a new class of central nervous system agents” (J Med Chem, 1978).
Active and inactive are the calls of the source.

Key:
Mus musculus [1] = test: Sedative activity in mouse assessed as increase in pentylenetetrazol-induced pseudo-convulsive threshold at 50 mg/kg, po relative to control; assay type: functional
[2] = Acute toxicity in po dosed mouse assessed as mortality administered as qd for 6 days measured on day 7 post last dose; assay type: organism-based; conditions: in vivo
[3] = Ratio of LD50 for po dosed mouse to PD50 for acute toxicity in po dosed mouse assessed as concentration required to produce 50% loss of righting reflex; assay type: organism-based; conditions: in vivo
Mus musculus [4] = test: Sedative activity in mouse assessed as increase in pentylenetetrazol-induced pseudo-convulsive threshold at 25 to 200 mg/kg, po; assay type: functional, organism-based
Rattus norvegicus = test: Antianxiety activity in ip dosed rat assessed as effect on increase in punished responses administered qd for 5 days measured every day for 5 days; assay type: functional; conditions: 120 h, read-out: MED
Mus musculus [5] = test: Anticonvulsant activity in po dosed mouse assessed as blockade of supramaximal electroshock-induced […] seizure; assay type: functional
[6] = Therapeutic index, ratio of PD50 for acute toxicity in po dosed mouse assessed as concentration required to produce 50% loss of righting reflex to MED causing antianxiety activity in ip dosed rat assessed as effect on increase in punished responses; assay type: organism-based; conditions: in vivo, other: oral (PD50, mouse) and intraperitoneal (MED, rat), read-out: TI
Mus musculus [7] = test: Acute toxicity in po dosed mouse assessed as concentration required to produce 50% loss of righting reflex administered as qd for 4 days measured for 1 min post last dose; assay type: organism-based; conditions: in vivo
Mus musculus [8] = test: Sedative-hypnotic activity in mouse assessed as increase in pentylenetetrazol-induced pseudo/persistent-convulsive threshold at 50 to 200 mg/kg, po; assay type: functional, organism-based
Mus musculus [9] = test: Muscle relaxant activity in po dosed mouse assessed as blockade of pentylenetetrazol-induced tonic extensor seizure; assay type: functional
Mus musculus [10] = test: Muscle relaxant activity in po dosed mouse assessed as increase in strychnine-induced persistant convulsive threshold; assay type: functional
Mus musculus [11] = test: Hypnotic activity in mouse assessed as increase in pentylenetetrazol-induced persistent-convulsive threshold at 50 mg/kg, po relative to control; assay type: functional
Mus musculus [12] = test: Sedative activity in mouse assessed as increase in pentylenetetrazol-induced pseudo-convulsive threshold at 25 mg/kg, po relative to control; assay type: functional
[13] = Therapeutic index, ratio of PD50 for acute toxicity in po dosed mouse assessed as concentration required to produce 50% loss of righting reflex to MED25 for muscle relaxant activity in po dosed mouse assessed as increase in strychnine-induced persistant convulsive threshold; assay type: organism-based; conditions: in vivo, read-out: TI
[14] = Therapeutic index, ratio of PD50 for acute toxicity in po dosed mouse assessed as concentration required to produce 50% loss of righting reflex to MED20 for muscle relaxant activity in po dosed mouse assessed as blockade of pentylenetetrazol-induced tonic extensor seizure; assay type: organism-based; conditions: in vivo, read-out: TI
[15] = Therapeutic index, ratio of PD50 for acute toxicity in po dosed mouse assessed as concentration required to produce 50% loss of righting reflex to MED20 for anticonvulsant activity in po dosed mouse assessed as blockade of supramaximal electroshock-induced […] seizure; assay type: organism-based; conditions: in vivo, read-out: TI
Mus musculus [16] = test: Sedative activity in mouse assessed as increase in pentylenetetrazol-induced pseudo-convulsive threshold at 100 mg/kg, po; assay type: functional, organism-based; parameters: dose 100 mg/kg
Mus musculus [17] = test: Sedative activity in mouse assessed as increase in pentylenetetrazol-induced pseudo-convulsive threshold at 200 mg/kg, po relative to control; assay type: functional
Mus musculus [18] = test: Hypotic activity in mouse assessed as increase in pentylenetetrazol-induced persistant-convulsive threshold at 200 mg/kg, po relative to control; assay type: functional, organism-based; parameters: dose 200 mg/kg

Question: For `CN1CCC/C1=N\C(=O)Nc1ccc([N+](=O)[O-])cc1`, which Activity (Mus musculus [1]) is on record?
Answer: 73%

Question: What about the LD50 at 144 h [2] of the same compound?
Answer: 1310 mg/kg

Question: What about the selectivity ratio [3] of the same compound?
Answer: 1

Question: What about the Activity (Mus musculus [4]) of the same compound?
Answer: Active

Question: What about the minimal effective dose (Rattus norvegicus) of the same compound?
Answer: 15 mg/kg

Question: And the MED20 (Mus musculus [5])?
Answer: >200 mg/kg

Question: What about the selectivity ratio [6] of the same compound?
Answer: 80

Question: What about the PD50 (Mus musculus [7]) of the same compound?
Answer: 1200 mg/kg

Question: And the Activity (Mus musculus [8])?
Answer: Active

Question: And the MED20 (Mus musculus [9])?
Answer: 100 mg/kg

Question: What about the MED25 (Mus musculus [10]) of the same compound?
Answer: >200 mg/kg

Question: And the Activity (Mus musculus [11])?
Answer: 45%

Question: And the Activity (Mus musculus [12])?
Answer: 25%

Question: What does the source list for `COc1ccccc1OCC(O)COC(N)=O` (stereo not given) [METHOCARBAMOL]?
Answer: selectivity ratio [13]: 3.4; LD50 at 144 h [2]: 2000 mg/kg; selectivity ratio [3]: 1.9; minimal effective dose (Rattus norvegicus): > 25 mg/kg; MED20 (Mus musculus [5]): 120 mg/kg; PD50 (Mus musculus [7]): 1050 mg/kg; selectivity ratio [14]: 7; MED20 (Mus musculus [9]): 150 mg/kg; selectivity ratio [15]: 8.7; MED25 (Mus musculus [10]): 310 mg/kg

Question: What does the source list for `CN1CCC/C1=N\C(=O)Nc1cccc(Cl)c1`?
Answer: LD50 at 144 h [2]: 1500 mg/kg; selectivity ratio [3]: 1.6; Activity (Mus musculus [4]): Active; minimal effective dose (Rattus norvegicus): 15 mg/kg; MED20 (Mus musculus [5]): 142 mg/kg; selectivity ratio [6]: 63; PD50 (Mus musculus [7]): 950 mg/kg; Activity (Mus musculus [16]): inactive; MED20 (Mus musculus [9]): 32 mg/kg; MED25 (Mus musculus [10]): 50 mg/kg; Activity (Mus musculus [17]): 50%; Activity (Mus musculus [18]): inactive
